# Test results taken from PMC11020070, “Discovery of Protease-Activated Receptor 4 (PAR4)-Tethered Ligand Antagonists Using Ultralarge Virtual Screening” (ACS Pharmacology & Translational Science, 2024).
# Read-outs that look alike come from different tables or passages of the source.
# Legend:
# [1] = biological target: T1, mouse PAR4 (Mus musculus, UniProt O88634); assay: Mouse platelet activity assay, flow cytometry, γ-thrombin activation; assay type: cell-based
# T1 construct: washed mouse platelets were prepared by collecting cardiac puncture blood; endogenous in cells; host or cells: washed mouse platelets (cardiac puncture blood)
# T1 sequence (O88634 17-396): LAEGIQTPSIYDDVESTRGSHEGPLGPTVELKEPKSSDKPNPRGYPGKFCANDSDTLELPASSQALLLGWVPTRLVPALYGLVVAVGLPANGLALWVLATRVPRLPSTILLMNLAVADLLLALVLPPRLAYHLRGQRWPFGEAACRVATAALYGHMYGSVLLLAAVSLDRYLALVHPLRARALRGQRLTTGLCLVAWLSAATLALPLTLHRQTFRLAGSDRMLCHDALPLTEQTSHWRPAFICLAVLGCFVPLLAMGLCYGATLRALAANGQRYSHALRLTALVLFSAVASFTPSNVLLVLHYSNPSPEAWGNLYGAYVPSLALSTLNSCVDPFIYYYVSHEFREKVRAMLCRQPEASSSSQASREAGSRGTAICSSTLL
# Method: For mouse PAR4 activity, washed mouse platelets were prepared by collecting cardiac puncture blood with 200 μL of 20 U/mL heparin. Following centrifugation at 1000 rpm for 15 min, plasma and buffy coat were collected into a separate tube and spiked with apyrase and PGE1. After centrifuging at 1000 rpm for 8 min, the platelet-rich plasma was transferred to another tube and centrifuged at 2200 rpm for 10 min to pellet the platelets. Platelets were resuspended in TBB + apyrase + PGE1. Platelets were counted and diluted in TBB to a final concentration of 2 × 10^7 platelets/mL. 50 μL of platelets were aliquoted to each tube preincubated with 50 μL of TBB with antibodies for mouse GPIIbIIIa and P-selectin (Emfret, Eibelstadt Germany) and either test compound antagonist or DMSO control. Platelets were activated with 316 nM γ-thrombin for 30 min. Samples were then fixed with 100 μL of 2% paraformaldehyde for 20 min and diluted with 300 μL of PBS. Flow cytometry counts are measured as for human platelets on a three-laser BD LSRFortessa (Becton Dickinson) and analyzed with FloJo software.
# [2] = Microsomal stability, human liver microsomes; assay type: in vitro ADME; settings: for CLint scaled at 1 µM: pH 7.4, human liver microsomes, in vitro, reaction started with NADPH; for human CLhep: predicted hepatic clearance from human liver microsomes
# Method: (§1) The metabolic stability of each compound was investigated in mouse and human hepatic microsomes using substrate depletion methodology (% parent compound remaining). Prior to use, microsomes were removed from the freezer and allowed to thaw in a 37 °C water bath before being placed on wet ice.
# (§2) In separate 96-well plates for each time point, a mixture of 0.1 M potassium phosphate-buffered (pH 7.4), 3 mM MgCl2, and 2.5 mg/mL microsomes were prewarmed at 37 °C for 5 min. Following the preincubation, a 1 μM test compound and 1 mM NADPH (for 3, 7, 15, 25, or 45 min time points) or buffer (for 0 min time point) were added to initiate the reaction. Under standard conditions, reactions were initiated with the addition of NADPH. To delineate the contribution of esterases, some experiments were initiated by the addition of substrate in the presence or absence of NADPH. Plates were incubated at 37 °C under ambient oxygenation. At the respective times, each plate’s reaction was precipitated by the addition of 2 volumes of ice-cold acetonitrile containing an internal standard (carbamazepine, 50 nM). The plates were centrifuged at 4000 rcf (4 °C) for 5 min. The resulting supernatants were transferred and diluted 1:1 (supernatant:water) into new 96-well plates in preparation for LC/MS/MS analysis. Each compound was assayed in triplicate within the same 96-well plate. The in vitro half-life (t1/2, min, eq 1), intrinsic clearance (CLint, mL/min/kg, eq 2), and subsequent predicted hepatic clearance (CLhep, mL/min/kg, eq 3) were determined employing the following equations [drawing 1] 1 [drawing 2] 2 [drawing 3] 3 The estimated percent contribution to metabolism was calculated from the percent substrate lost plots generated from metabolic incubations initiated with the addition of a test compound. Calculations compared the area under the curve (AUC) from conditions in the presence and absence of NADPH and buffer-only (control) conditions (eqs 4 and 5). AUC was calculated by using the trapezoidal method [drawing 4] 4 [drawing 5] 5
# (§3) The analysis of in vitro samples from microsomal stability or plasma protein binding experiments was determined by employing LCMS/MS with an electrospray ionization-enabled 5500 Sciex instrument (Sciex, Foster City, CA) that was coupled to Agilent HPLC pumps and an autosampler (Agilent Technologies, Santa Clara, CA). Analytes were separated by gradient elution using a Kinetex C18 column (2.1 mm × 50 mm, 5 μm; Phenomenex, Torrance, CA) warmed to 35 °C. Mobile phase A was 0.5% formic acid in water, and mobile phase B was 0.5% formic acid in acetonitrile. […] The total run time was 2.8 min, and the HPLC flow rate was 0.5 mL/min. Mass spectral analyses were performed using multiple reaction monitoring, with transitions and voltages specific for each analyte using a Turbo Ion Spray source (source temperature of 500 °C) in positive ionization mode (5.0 kV spray voltage). Multiple reaction monitoring transitions were the following: 6110B8 (m/z 345.02 → 149.03, DP = 31; EP = 10; CE = 37 and CXP = 14), 6G3R (m/z 421.06 → 225.12, DP = 91; EP = 10; CE = 39 and CXP = 12), 5D22 (m/z 309.068 → 211.16, DP = 131; EP = 10; CE = 29 and CXP = 12), and carbamazepine (m/z 237 → 194, DP = 96; EP = 10; CE = 25 and CXP = 8). Data were analyzed using OS Sciex Analyst 1.5.1 (SCIEX, Framingham, MA), Graphpad Prism 10.1.0 (GraphPad Software, Boston, Massachusetts), and Microsoft Excel version 2310 (Microsoft, Redmond, WA).
# [3] = Plasma protein binding, human plasma; assay type: in vitro ADME; settings: pH 7.4, read-out: human PPB fu
# [4] = Microsomal stability, mouse liver microsomes; assay type: in vitro ADME; settings: for CLint scaled at 1 µM: pH 7.4, mouse liver microsomes, in vitro, reaction started with NADPH; for mouse CLhep: predicted hepatic clearance from mouse liver microsomes
# Method: as §1, §2, §3
# [5] = Table 4 summary, read-out: mouse PAR4 IC50
# [6] = mouse platelets, 316 nM γ-thrombin, GPIIbIIIa (JonA), read-out: Mouse Platelets JonA IC50
# [7] = mouse platelets, 316 nM γ-thrombin, P-selectin, read-out: Mouse Platelets P-Sel IC50
SMILES,"IC50 [1, 5]","IC50 [1, 6]","IC50 [1, 7]",CLint scaled at 1 µM [2],human CLhep [2],fraction unbound at 4 h [3],CLint scaled at 1 µM [4],mouse CLhep [4]
Cn1nc(C(=O)Nc2n[nH]c(-c3c(F)cccc3F)n2)cc1C1CC1 [Compound 12],–,401 nM,370 nM,478 mL/min/kg,20.1 mL/min/kg,0.052,11500 mL/min/kg,89.3 mL/min/kg
O=C(Nc1nc[nH]n1)c1nn(-c2ccccc2)c2c1CCC2 [Compound 17],3330 nM,3330 nM,4020 nM,49.6 mL/min/kg,14.8 mL/min/kg,0.029,2440 mL/min/kg,86.8 mL/min/kg
Cc1cc(C(=O)Nc2n[nH]c(OC(F)F)n2)nn1-c1ccccc1 [Compound 9],1450 nM,1450 nM,1450 nM,407 mL/min/kg,20 mL/min/kg,0.036,–,–

# The next compounds have a lower IC50 [1, 6] than those just listed; values first:
"IC50 [1, 5]","IC50 [1, 6]","IC50 [1, 7]",CLint scaled at 1 µM [2],human CLhep [2],fraction unbound at 4 h [3],CLint scaled at 1 µM [4],mouse CLhep [4],SMILES
269 nM,269 nM,298 nM,285 mL/min/kg,19.6 mL/min/kg,0.007,–,–,COc1cccc(-c2nc(NC(=O)c3nn(-c4ccccc4)c4c3CCCC4)n[nH]2)c1 [Compound 32]
367 nM,367 nM,330 nM,459 mL/min/kg,20.1 mL/min/kg,0.015,19900 mL/min/kg,89.6 mL/min/kg,O=C(Nc1n[nH]c(-c2ccc(F)cc2F)n1)c1nn(-c2ccccc2)c2c1CCCC2 [Compound 31]
